Experimental findings from US7943551B2, “3-cyclopropyl-4-(3-thiobenzoyl) pyrazoles and their use as herbicides” (Bayer Cropscience AG, priority 2007, dated 2011) are described below.

Format in all cases: in vivo
One assay deals with Viola tricolor. In words: Post-emergence herbicidal action. Conditions: 80 g of a.i./ha, read-out: Herbicidal activity in % against VIOTR. How it is done:
(§1) Seeds of mono- and dicotyledonous harmful plants are placed in sandy loam in cardboard pots, covered with soil and grown in the greenhouse under good growth conditions. Two to three weeks after sowing, the test plants are treated at the three-leaf stage. The compounds according to the invention, which are formulated as wettable powders or as emulsion concentrates, are sprayed at an application rate of 600 to 800 l of water/ha (converted) in a dosage of 80 grams per hectare onto the surface of the green plant parts. The visual scoring of the damage to the harmful plants is carried out 3-4 weeks after the treatment. Here, the compounds of Nos. 1-39, 1-40, 1-1382 and 1-2091 show an activity of at least 90% against Echinochloa crus galli. The compounds of Nos. 1-3, 1-44 and 1-2091 shown an activity of at least 90% against Abutilon theophrasti. The compounds of Nos. 1-39, 1-40 and 1-1382 show an activity of at least 90% against Veronica persica. The compounds of Nos. 1-3, 1-38, 1-39, 1-1406 and 1-1407 show an activity of at least 90% against Stellaria media.
(§2) The comparative tests of Tables 1 to 24 below show the superiority of the compounds according to the invention over the compounds known from the prior art.
(§3) • ABUTH Abutilon theophrasti ALOMY Alopecurus myosuroides • AMARE Amaranthus retroflexus AVEFA Avena fatua • CHEAL Chenopodium album ECHCG Echinochloa crus galli • GALAP Galium aparine LOLMU Lolium multiflorum • MATIN Matricaria inodora PHBPU Pharbitis purpureum • POLCO Fallopia convolvulus STEME Stellaria media • VERPE Veronica persica VIOTR Viola tricolor • XANST Xanthium strumarium Crop Plants • GLXMA Glycine max (soybeans) TRZAS Triticum aestivum (wheat) • ZEAMX Zea mays (corn)

A further assay deals with Echinochloa crus galli. In words: Post-emergence herbicidal action. Conditions: read-out: Herbicidal activity in % against ECHCG; for pest or weed control at 80 g/ha: 80 g of a.i./ha, visual scoring 3-4 weeks after treatment; for pest or weed control at 20 g/ha: 20 g of a.i./ha. How it is done: as §1, §2, §3
The test system of a further assay is Xanthium strumarium. In words: Post-emergence herbicidal action. Conditions: read-out: Herbicidal activity in % against XANST; for pest or weed control at 80 g/ha: 80 g of a.i./ha; for pest or weed control at 20 g/ha: 20 g of a.i./ha. How it is done: as §1, §2, §3
A further assay relates to Stellaria media. In words: Post-emergence herbicidal action. Conditions: 80 g of a.i./ha, visual scoring 3-4 weeks after treatment; for pest or weed control at 80 g/ha: Stellaria media, read-out: Herbicidal activity in % against STEME. As to the method: as §1, §2, §3
Assay [1] concerns Abutilon theophrasti. In words: Post-emergence herbicidal action. Conditions: for pest or weed control at 80 g/ha / pest or weed control at 20 g/ha: Abutilon theophrasti, read-out: Herbicidal activity in % against ABUTH; for pest or weed control at 20 g/ha: 20 g of a.i./ha. How it is done: as §1, with “The compounds according to the invention, which are formulated as wettable powders or as emulsion concentrates, are sprayed at an application rate of 600 to 800 l of water/ha (converted) in a dosage of 80 grams per hectare onto the surface of the green plant parts.” left out
as §2, §3

Assay [2] relates to Matricaria inodora. In words: Post-emergence herbicidal action. Conditions: Tripleurospermum inodorum, 80 g of a.i./ha, read-out: Herbicidal activity in % against MATIN. As to the method: as §1, §2, §3
The next assay has as its system Pharbitis purpureum. In words: Post-emergence herbicidal action. Conditions: 80 g of a.i./ha. How it is done:
as §1, §2, §3

Another assay deals with Veronica persica. In words: Post-emergence herbicidal action. Conditions: 80 g of a.i./ha, visual scoring 3-4 weeks after treatment, read-out: Herbicidal activity in % against VERPE. As to the method: as §1, §2, §3
The subject of assay [3] is Abutilon theophrasti. In words: Pre-emergence herbicidal action. Conditions: 320 g of a.i./ha, visual scoring 3-4 weeks after treatment.
From the text: (§4) Seeds or rhizome pieces of mono- and dicotyledonous harmful plants are placed in sandy loam in pots of a diameter of 9 to 13 cm and covered with soil. The herbicides, formulated as emulsifiable concentrates or dusts, are applied to the surface of the covering soil in the form of aqueous dispersions or suspensions or emulsions at an application rate of 300 to 800 l of water/ha (converted), at a dosage of 320 grams per hectare. For further cultivation of the plants, the pots are then kept in a greenhouse under optimum conditions. The visual scoring of the damage to the harmful plants is carried out 3-4 weeks after the treatment. Here, the compounds of Nos. 1-3, 1-15, 1-44 and 1-1407 show an activity of at least 90% against Echinochloa crus galli. The compounds of Nos. 1-15, 1-45, 1-1407 and 1-1419 show an activity of at least 90% against Abutilon theophrasti. The compounds of Nos. 1-3, 1-45, 1-1406 and 1-1418 show an activity of at least 90% against Amaranthus retroflexus. The compounds of Nos. 1-44, 1-1406, 1-1407 and 1-1419 show an activity of at least 90% against Stellaria media.
as §2, §3

For assay [4], the system named is Matricaria inodora. In words: Pre-emergence herbicidal action. Conditions: Tripleurospermum inodorum, 320 g of a.i./ha, read-out: Herbicidal activity in % against MATIN.
From the text: as §4, §2, §3

The mark [5] stands for this setting: 80 g of a.i./ha, visual scoring 3-4 weeks after treatment.

On to `Cc1c(C(=O)c2c(C3CC3)nn(C)c2O)ccc(S(C)(=O)=O)c1SCC1CC1` [drawing 29], for which the figures for the pest or weed control at 80 g/ha with Viola tricolor, in the assay on Echinochloa crus galli and with Xanthium strumarium were 90%, 100% and 90%, respectively.

In the case of `Cc1c(C(=O)c2c(C3CC3)nn(C)c2O)ccc(Cl)c1SCC1CC1` [No. 1-1406, 4-(4-chloro-3′-cyclopropylmethylthio-2-methylbenzoyl)-3-cyclopropyl-5-hydroxy-1-methylpyrazole], the pest or weed control at 80 g/ha in the assay with Stellaria media was not below 90%.

For the compound `CSc1c(S(C)(=O)=O)ccc(C(=O)c2c(C3CC3)nn(C)c2O)c1Cl` [drawing 50, reference compound], the pest or weed control at 80 g/ha in the assay on Abutilon theophrasti [1] (setting [5]) was found to be 80%; in the assay on Viola tricolor, 60%; in the assay on Matricaria inodora [2] it was 30%.

In the case of `Cc1c(C(=O)c2c(C3CC3)nn(C)c2O)ccc(Cl)c1SCC1CC1` [drawing 39], in the assay with Pharbitis purpureum, the “Herbicidal activity in % against PHBPU” value is reported as 70%. For the same compound, the pest or weed control at 80 g/ha with Echinochloa crus galli is 90%; in the assay with Matricaria inodora [2], 70%. The “Herbicidal activity in % against STEME” value in the assay on Stellaria media was 100%.

For `COCCSc1c(Cl)ccc(C(=O)c2c(C3CC3)nn(C)c2O)c1C` [drawing 41], the “Herbicidal activity in % against PHBPU” value in the assay on Pharbitis purpureum is recorded as 80%. Besides, the pest or weed control at 80 g/ha amounted to 90% with Echinochloa crus galli, 100% in the assay on Stellaria media and 80% with Matricaria inodora [2].

For `COCCSc1c(S(C)(=O)=O)ccc(C(=O)c2c(C3CC3)nn(C)c2O)c1C`, the pest or weed control at 80 g/ha with Viola tricolor, in the assay with Echinochloa crus galli and in the assay on Xanthium strumarium was 90% in each case.

As to `CCSc1c(Cl)ccc(C(=O)c2c(C3CC3)nn(C)c2O)c1C` [drawing 40, reference compound], the “Herbicidal activity in % against PHBPU” value with Pharbitis purpureum was determined as 40%. The pest or weed control at 80 g/ha came to 80% in the assay with Echinochloa crus galli, 90% in the assay on Stellaria media and 40% in the assay on Matricaria inodora [2].

With `CSc1c(S(C)(=O)=O)ccc(C(=O)c2c(C3CC3)nn(C)c2O)c1C` [drawing 30, reference compound], the values for the pest or weed control at 80 g/ha with Viola tricolor, in the assay with Echinochloa crus galli and in the assay on Xanthium strumarium were 70%, 80% and 60%, respectively.

For the compound `COCCSc1c(S(C)(=O)=O)ccc(C(=O)c2c(C3CC3)nn(C)c2O)c1Cl` [drawing 51], in the assay with Pharbitis purpureum, the “Herbicidal activity in % against PHBPU” value is listed as 60%. The “Herbicidal activity in % against STEME” value with Stellaria media is 90%. Moreover, in the assay with Veronica persica, the pest or weed control at 80 g/ha was determined as 100%.

For the compound `COCCSc1c(C(F)(F)F)ccc(C(=O)c2c(C3CC3)nn(C)c2O)c1C` [No. 1-2091, 3-cyclopropyl-5-hydroxy-4-(3-(2-methoxyethyl)thio-2-methyl-4-trifluoromethylbenzoyl)-1-methylpyrazole], the pest or weed control at 80 g/ha with Abutilon theophrasti [1] (setting [5]) and with Echinochloa crus galli was not below 90% throughout.

With `CSc1c(C(F)(F)F)ccc(C(=O)c2c(C3CC3)nn(C)c2O)c1C` [drawing 20], the “Herbicidal activity in % against ABUTH” value with Abutilon theophrasti [3] stood at 50%. Also, the pest or weed control at 320 g/ha with Matricaria inodora [4] amounted to 0%.

`Cn1nc(C2CC2)c(C(=O)c2ccc(Cl)c(SCC3CC3)c2Cl)c1O`: the pest or weed control at 20 g/ha in the assay with Abutilon theophrasti [1] came out at 60%; in the assay on Xanthium strumarium, 70%.

Turning to `CCSc1c(C(F)(F)F)ccc(C(=O)c2c(C3CC3)nn(C)c2O)c1C`, in the assay with Abutilon theophrasti [3], the “Herbicidal activity in % against ABUTH” value is 90%. For the same compound, the pest or weed control at 320 g/ha in the assay with Matricaria inodora [4] is 0%.

Turning to `Cc1c(C(=O)c2c(C3CC3)nn(C)c2O)ccc(S(C)(=O)=O)c1SCC1CC1` [No. 1-38, 3-cyclopropyl-4-(3-cyclopropylmethylthio-2-methyl-4-methylsulfonylbenzoyl)-5-hydroxy-1-methylpyrazole], the pest or weed control at 80 g/ha in the assay on Stellaria media is not below 90%.

Take `COCCSc1c(C(F)(F)F)ccc(C(=O)c2c(C3CC3)nn(C)c2O)c1C` [drawing 19]: the “Herbicidal activity in % against ABUTH” value with Abutilon theophrasti [3] was determined as 100%. For the same compound, in the assay with Matricaria inodora [4], the pest or weed control at 320 g/ha was found to be 60%.

Regarding `CSc1c(S(C)(=O)=O)ccc(C(=O)c2c(C3CC3)nn(C)c2O)c1Cl` [drawing 52, reference compound], the “Herbicidal activity in % against PHBPU” value in the assay with Pharbitis purpureum stood at 50%. Further, the pest or weed control at 80 g/ha in the assay on Stellaria media and in the assay with Veronica persica was 80% in each case.

Consider `CCSc1c(S(C)(=O)=O)ccc(C(=O)c2c(C3CC3)nn(C)c2O)c1C` [reference compound], for which the pest or weed control at 80 g/ha in the assay with Viola tricolor came to 70%; in the assay with Echinochloa crus galli, 80%; in the assay on Xanthium strumarium, 80%.

On to `COCCSc1c(S(C)(=O)=O)ccc(C(=O)c2c(C3CC3)nn(C)c2O)c1Cl` [drawing 47], for which, in the assay with Abutilon theophrasti [1] (setting [5]), the “Herbicidal activity in % against ABUTH” value stood at 90%. Also, the pest or weed control at 80 g/ha in the assay on Viola tricolor and in the assay on Matricaria inodora [2] was 70% each time.

In the case of `CCSc1c(S(C)(=O)=O)ccc(C(=O)c2c(C3CC3)nn(C)c2O)c1Cl` [drawing 48, reference compound], the pest or weed control at 80 g/ha with Abutilon theophrasti [1] (setting [5]) was 80%; in the assay on Viola tricolor, 60%; in the assay with Matricaria inodora [2] it was 0%.

`COCCSc1c(C(F)(F)F)ccc(C(=O)c2c(C3CC3)nn(C)c2O)c1C` [drawing 45]: the pest or weed control at 20 g/ha in the assay with Abutilon theophrasti [1] and in the assay with Echinochloa crus galli was 80% in each case.

`CSc1c(C(F)(F)F)ccc(C(=O)c2c(C3CC3)nn(C)c2O)c1C` [drawing 46, reference compound]: the pest or weed control at 20 g/ha stood at 70% in the assay on Abutilon theophrasti [1] and 60% in the assay on Echinochloa crus galli.

As for `COCCSc1c(S(C)(=O)=O)ccc(C(=O)c2c(C3CC3)nn(C)c2O)c1Cl` [No. 1-3, 4-(2-chloro-3-(2-methoxyethyl)thio-4-methylsulfonylbenzoyl)-3-cyclopropyl-5-hydroxy-1-methylpyrazole], the pest or weed control at 80 g/ha in the assay with Abutilon theophrasti [1] (setting [5]) and in the assay on Stellaria media was not below 90% each time.

Take `CCSc1c(Cl)ccc(C(=O)c2c(C3CC3)nn(C)c2O)c1Cl` [reference compound]: the pest or weed control at 20 g/ha amounted to 40% in the assay on Abutilon theophrasti [1] and 50% with Xanthium strumarium.
